Target: Casein kinase I isoform gamma-3 (Homo sapiens) (UniProt Q9Y6M4)
Experiment: PubChem AID 1671212
Details: Z'-LYTE FRET peptide phosphorylation, recombinant CSNK1G3

Chain of Casein kinase I isoform gamma-3 (Homo sapiens) (Q9Y6M4 whole entry, looked up, canonical isoform): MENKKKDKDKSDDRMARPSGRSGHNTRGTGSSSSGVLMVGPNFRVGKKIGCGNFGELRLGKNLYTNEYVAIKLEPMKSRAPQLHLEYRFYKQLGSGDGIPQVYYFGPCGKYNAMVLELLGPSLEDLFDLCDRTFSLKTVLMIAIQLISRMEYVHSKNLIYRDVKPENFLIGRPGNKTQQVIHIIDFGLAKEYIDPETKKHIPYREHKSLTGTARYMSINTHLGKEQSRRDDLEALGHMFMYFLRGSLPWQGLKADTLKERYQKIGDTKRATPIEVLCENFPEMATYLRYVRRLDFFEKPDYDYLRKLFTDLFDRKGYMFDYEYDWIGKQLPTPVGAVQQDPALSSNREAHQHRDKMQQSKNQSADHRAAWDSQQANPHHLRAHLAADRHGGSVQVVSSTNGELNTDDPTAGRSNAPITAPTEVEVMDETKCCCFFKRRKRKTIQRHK

- IC50: 69.9 µM
SMILES: Brc1c(Br)c(Br)c2n[nH]nc2c1Br
